Experimental data: the NIST ThermoML archive (doi:10.1021/je100832h)

What was measured:
[1] = excess molar enthalpy (molar enthalpy of mixing); xn = mol fraction of the nth substance listed; settings: 291.15 K, 101 kPa, Liquid, Calvet calorimetry
[2] = xn = mol fraction of the nth substance listed; settings: 101.32 kPa, Liquid, Vibrating tube method

CCOC(C)=O [ethyl acetate] + CCCCCCC
[1]
Settings | excess molar enthalpy [kcal/mol]
x1 = 0.0704 | 0.107
x1 = 0.1554 | 0.198
x1 = 0.2363 | 0.272
x1 = 0.3039 | 0.323
x1 = 0.3738 | 0.358
x1 = 0.4354 | 0.375
x1 = 0.4887 | 0.379
x1 = 0.5306 | 0.376
x1 = 0.5794 | 0.367
x1 = 0.6196 | 0.355
x1 = 0.6682 | 0.335
x1 = 0.7293 | 0.299
x1 = 0.7913 | 0.256
x1 = 0.8405 | 0.204
x1 = 0.9015 | 0.137
x1 = 0.9556 | 0.0667

[2]
Settings | mass density [kg/m3]
291.15 K, x1 = 0.0161 | 687.34
291.15 K, x1 = 0.0572 | 692.44
291.15 K, x1 = 0.1159 | 700.33
291.15 K, x1 = 0.2057 | 713.27
291.15 K, x1 = 0.2894 | 726.55
291.15 K, x1 = 0.3673 | 740
291.15 K, x1 = 0.4396 | 753.43
291.15 K, x1 = 0.5126 | 768.17
291.15 K, x1 = 0.5792 | 782.54
291.15 K, x1 = 0.6414 | 796.91
291.15 K, x1 = 0.7006 | 811.5
291.15 K, x1 = 0.7555 | 825.89
291.15 K, x1 = 0.8141 | 842.35
291.15 K, x1 = 0.8631 | 856.84
291.15 K, x1 = 0.9105 | 872
291.15 K, x1 = 0.9718 | 892.61
291.15 K, x1 = 1 | 902.88
298.15 K, x1 = 0.0409 | 684.35
298.15 K, x1 = 0.0568 | 686.42
298.15 K, x1 = 0.1196 | 694.72
298.15 K, x1 = 0.1493 | 698.85
298.15 K, x1 = 0.2079 | 707.39
298.15 K, x1 = 0.2587 | 715.2
298.15 K, x1 = 0.2981 | 721.51
298.15 K, x1 = 0.3171 | 724.7
298.15 K, x1 = 0.3703 | 733.9
298.15 K, x1 = 0.4203 | 743.04
298.15 K, x1 = 0.4911 | 756.8
298.15 K, x1 = 0.5587 | 770.85
298.15 K, x1 = 0.6169 | 783.73
298.15 K, x1 = 0.6668 | 795.46
298.15 K, x1 = 0.727 | 810.54
298.15 K, x1 = 0.778 | 824.17
298.15 K, x1 = 0.8302 | 839.02
298.15 K, x1 = 0.8787 | 853.8
298.15 K, x1 = 0.9206 | 867.23
298.15 K, x1 = 0.9879 | 890.2
298.15 K, x1 = 1 | 894.4
318.15 K, x1 = 0.053 | 668.2
318.15 K, x1 = 0.0902 | 672.9
318.15 K, x1 = 0.1685 | 683.15
318.15 K, x1 = 0.2326 | 692.18
318.15 K, x1 = 0.2439 | 693.85
318.15 K, x1 = 0.2981 | 702.14
318.15 K, x1 = 0.3991 | 719.02
318.15 K, x1 = 0.4184 | 722.43
318.15 K, x1 = 0.4793 | 733.7
318.15 K, x1 = 0.528 | 743.25
318.15 K, x1 = 0.5785 | 753.7
318.15 K, x1 = 0.6277 | 764.5
318.15 K, x1 = 0.6774 | 775.92
318.15 K, x1 = 0.7248 | 787.48
318.15 K, x1 = 0.7652 | 797.95
318.15 K, x1 = 0.7914 | 804.97
318.15 K, x1 = 0.8486 | 821.19
318.15 K, x1 = 0.9067 | 838.76
318.15 K, x1 = 0.9554 | 854.25
318.15 K, x1 = 1 | 869.6
328.15 K, x1 = 0.0084 | 654.45
328.15 K, x1 = 0.1044 | 665.69
328.15 K, x1 = 0.1911 | 676.99
328.15 K, x1 = 0.2817 | 690.09
328.15 K, x1 = 0.3479 | 700.46
328.15 K, x1 = 0.423 | 713.16
328.15 K, x1 = 0.488 | 725.11
328.15 K, x1 = 0.5492 | 737.13
328.15 K, x1 = 0.621 | 752.34
328.15 K, x1 = 0.6655 | 762.36
328.15 K, x1 = 0.7209 | 775.45
328.15 K, x1 = 0.7755 | 789.39
328.15 K, x1 = 0.8274 | 803.37
328.15 K, x1 = 0.8717 | 815.94
328.15 K, x1 = 0.9217 | 831.14
328.15 K, x1 = 0.9731 | 847.9
328.15 K, x1 = 1 | 857.17

CCCCCCCCC [nonane] + CCOC(C)=O
[1]
Settings | excess molar enthalpy [kcal/mol]
x2 = 0.0872 | 0.132
x2 = 0.1735 | 0.225
x2 = 0.2499 | 0.299
x2 = 0.3159 | 0.351
x2 = 0.3746 | 0.383
x2 = 0.433 | 0.404
x2 = 0.4869 | 0.414
x2 = 0.534 | 0.416
x2 = 0.5836 | 0.412
x2 = 0.6005 | 0.406
x2 = 0.6419 | 0.393
x2 = 0.6885 | 0.374
x2 = 0.7366 | 0.346
x2 = 0.7846 | 0.31
x2 = 0.8345 | 0.263
x2 = 0.8779 | 0.205
x2 = 0.9237 | 0.141
x2 = 0.9619 | 0.0734

[2]
Settings | mass density [kg/m3]
291.15 K, x2 = 0 | 719.2
291.15 K, x2 = 0.0328 | 721.88
291.15 K, x2 = 0.0796 | 726
291.15 K, x2 = 0.1292 | 730.54
291.15 K, x2 = 0.2225 | 740.13
291.15 K, x2 = 0.3076 | 750
291.15 K, x2 = 0.3932 | 761.25
291.15 K, x2 = 0.4659 | 771.77
291.15 K, x2 = 0.5694 | 788.99
291.15 K, x2 = 0.6015 | 794.91
291.15 K, x2 = 0.6514 | 804.7
291.15 K, x2 = 0.7041 | 815.84
291.15 K, x2 = 0.7547 | 827.59
291.15 K, x2 = 0.8076 | 840.96
291.15 K, x2 = 0.8502 | 852.64
291.15 K, x2 = 0.8954 | 866.2
291.15 K, x2 = 0.9307 | 877.58
291.15 K, x2 = 0.9918 | 899.59
298.15 K, x2 = 0 | 713.85
298.15 K, x2 = 0.0652 | 719.2
298.15 K, x2 = 0.1102 | 723.17
298.15 K, x2 = 0.1906 | 730.94
298.15 K, x2 = 0.2667 | 739.14
298.15 K, x2 = 0.3377 | 747.65
298.15 K, x2 = 0.4128 | 757.7
298.15 K, x2 = 0.4737 | 766.6
298.15 K, x2 = 0.5212 | 774.12
298.15 K, x2 = 0.5875 | 785.5
298.15 K, x2 = 0.6305 | 793.54
298.15 K, x2 = 0.6743 | 802.32
298.15 K, x2 = 0.7212 | 812.53
298.15 K, x2 = 0.767 | 823.2
298.15 K, x2 = 0.8024 | 832.16
298.15 K, x2 = 0.8428 | 843.01
298.15 K, x2 = 0.8654 | 849.38
298.15 K, x2 = 0.9419 | 873.16
298.15 K, x2 = 0.9564 | 878.07
318.15 K, x2 = 0 | 698.09
318.15 K, x2 = 0.0372 | 700.83
318.15 K, x2 = 0.1287 | 708.3
318.15 K, x2 = 0.2206 | 717
318.15 K, x2 = 0.3125 | 726.84
318.15 K, x2 = 0.3941 | 736.68
318.15 K, x2 = 0.4659 | 746.38
318.15 K, x2 = 0.5311 | 756.19
318.15 K, x2 = 0.5965 | 767.1
318.15 K, x2 = 0.6714 | 781.02
318.15 K, x2 = 0.7111 | 789.15
318.15 K, x2 = 0.7598 | 799.77
318.15 K, x2 = 0.8122 | 812.28
318.15 K, x2 = 0.8596 | 824.75
318.15 K, x2 = 0.8955 | 835.04
318.15 K, x2 = 0.936 | 847.56
318.15 K, x2 = 0.9808 | 862.66
328.15 K, x2 = 0 | 690.4
328.15 K, x2 = 0.0202 | 691.7
328.15 K, x2 = 0.1246 | 699.9
328.15 K, x2 = 0.2225 | 708.81
328.15 K, x2 = 0.3109 | 717.88
328.15 K, x2 = 0.3923 | 727.35
328.15 K, x2 = 0.4644 | 736.84
328.15 K, x2 = 0.5377 | 747.63
328.15 K, x2 = 0.6125 | 759.98
328.15 K, x2 = 0.7233 | 781.1
328.15 K, x2 = 0.7593 | 788.8
328.15 K, x2 = 0.8102 | 800.56
328.15 K, x2 = 0.8505 | 810.9
328.15 K, x2 = 0.8934 | 822.54
328.15 K, x2 = 0.9507 | 840.17
328.15 K, x2 = 0.9876 | 852.64
